Results on 4 molecules are retold here after patent US20160108414A1, “GROWTH-RELATED ENOX PROTEINS FROM PLANTS WITH YIELD ENHANCEMENT POTENTIAL, SEQUENCES AND METHODS” (Mor-NuCo Enterprises, Inc., priority 2013, published 2016).

Holding throughout (type): biochemical
The subject of one assay is dNOX of soybean. The experiment in a line: Stimulation of NOX activity of soybean plasma membranes (dNOX of soybean). The conditions noted are these: 1 μM.
In the next assay the target is T1, recombinant ABP-20 (Prunus persica, UniProt O04011, DUP151-151).
T1 construct: made in house; host or cells: E. coli BL21 (DE3), pET11b
The experiment in a line: NADH oxidase activity of IEF-purified recombinant ABP-20 (dNOX). Here is the method: (§1) Oxidation of NADH was determined spectrophotometrically from the disappearance of NADH measured at 340 nm in a reaction mixture containing 25 mM Tris-MES (pH 7.2), 100 μM GSH, 1 mM KCN to inhibit mitochondrial oxidase activity, 150 μM NADH and the enzyme at 37° C. with temperature control (±0.5° C.) and stirring. Prior to assay, 1 μM reduced glutathione was added to reduce the protein in the presence of substrate. After 10 min, 0.03% hydrogen peroxide was added to reoxidize the protein under renaturing conditions and in the presence of substrate to start the reaction. Activities were measured using paired Hitachi U3210 or paired SLM Aminco 2000 spectrophotometers both with continuous recording. Assays were run for 1 min and were repeated on the same sample at intervals of 1.5 min for the times indicated. An extinction coefficient of 6.22 cm^−1 mM^−1 was used to determine specific activity.
Cells were centrifuged at 5,000 g for 6 min. Pellets were then resuspended in 20 mM Tris-HCl, pH 8.0, containing 0.5 mM PMSF, 1 mM benzamidine and 1 mM 6-aminocaproic and lysed by three passages through a French pressure cell (SLM Aminco) at 20,000 psi. Expression of the recombinant ABP-20 of about 20 kDa was confirmed by SDS-PAGE with silver staining. Transformed cells were stored at −80° C. in a standard glycerol stock solution. The recombinant proteins were further purified on Criterion IEF gels (Bio-Rad, Hercules, Calif.). The IEF gel was cut into seven equal segments. The pH represented by each slice was based on IEF standards (Bio-Rad). The slices were soaked in 15 mM Tris-Mes buffer, pH 7, at 4° C. for overnight with shaking. The gel-free extracts were assayed for ENOX activities as follows: […]

Assay [1] has as its system recombinant Arabidopsis ENOX1. Kind of assay: NADH oxidase activity of IEF-purified recombinant Arabidopsis ENOX1. The protocol: Cells were centrifuged at 5,000 g for 6 min. Pellets were then resuspended in 20 mM Tris-HCl, pH 8.0, containing 0.5 mM PMSF, 1 mM benzamidine and 1 mM 6-aminocaproic and lysed by three passages through a French pressure cell (SLM Aminco) at 20,000 psi. Expression of the recombinant Arabidopsis ENOX1 of about 14 kDa was confirmed by SDS-PAGE with silver staining. Transformed cells were stored at −80° C. in a standard glycerol stock solution. The Arabidopsis ENOX1 proteins were further purified on Criterion IEF gels (Bio-Rad, Hercules, Calif.). The IEF gel was cut into seven equal segments. The pH represented by each slice was based on IEF standards (Bio-Rad). The slices were soaked in 15 mM Tris-Mes buffer, pH 7, at 4° C. for overnight with shaking. The gel-free extracts were assayed for ENOX1 activity.
as §1
IEF purified ENOX1 was concentrated to 0.7 mg/ml by using a Centricon concentrator (Millipore Corporation, Danvers, Mass.) fitted with a 10,000 nominal molecular weight limit ultracel YM membrane. Samples (50 μl) were combined with 1 μl of trifluoroacetic acid (TFA) in the presence or absence of 15 μl 10 mM bathocuproine. After 2 h of incubation at room temperature, the samples were dialyzed (Spectra/Pro Dialysis membrane, molecular weight cut-off 6-8,000, Spectrum Laboratories (Rancho Dominguez, Calif.) against 20 mM Tris-HCl, pH 8, at 4° C. overnight.

The target in another assay is T2, recombinant human ENOX2 (Homo sapiens, UniProt Q16206).
T2 sequence (Q16206 1-610): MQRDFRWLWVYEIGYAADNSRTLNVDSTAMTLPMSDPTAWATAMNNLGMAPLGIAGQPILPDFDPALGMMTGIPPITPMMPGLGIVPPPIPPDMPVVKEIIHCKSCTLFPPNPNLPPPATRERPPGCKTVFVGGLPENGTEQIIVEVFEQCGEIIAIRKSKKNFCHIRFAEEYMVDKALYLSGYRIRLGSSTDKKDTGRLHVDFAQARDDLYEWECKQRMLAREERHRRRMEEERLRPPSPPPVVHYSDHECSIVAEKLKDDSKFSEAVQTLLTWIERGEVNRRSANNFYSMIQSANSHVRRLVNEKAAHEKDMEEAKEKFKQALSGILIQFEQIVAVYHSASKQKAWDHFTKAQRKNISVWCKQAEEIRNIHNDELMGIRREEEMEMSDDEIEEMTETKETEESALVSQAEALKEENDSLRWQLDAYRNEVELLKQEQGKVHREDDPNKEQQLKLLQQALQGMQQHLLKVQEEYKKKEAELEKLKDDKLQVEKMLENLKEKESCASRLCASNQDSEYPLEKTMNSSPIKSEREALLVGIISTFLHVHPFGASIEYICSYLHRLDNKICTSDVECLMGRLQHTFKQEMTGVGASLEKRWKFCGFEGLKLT
Kind of assay: Inhibition of recombinant human ENOX2 assayed in parallel. The settings on record: read-out: inhibition of recombinant human ENOX2. An excerpt: Simalikalactone D is a general ENOX1 inhibitor.

In assay [2] the target is T3, dNOX (ABP-20) (Prunus persica, UniProt O04011, C44A/DUP151-151).
T3 construct: made in house; host or cells: E. coli BL21 (DE3), pET11b (as for the unmodified protein; not repeated for the mutants)
The experiment in a line: DTDP (protein disulfide-thiol) interchange of dNOX (ABP-20) site-directed mutants. The conditions noted are these: versus wild type. Here is the method:
(§2) Protein disulfide-thiol interchange was determined spectrophotometrically from the increase in absorbance at 340 nm resulting from the cleavage of dithiodipyridine (DTDP (Morré, D. J., Gomez-Rey, M. L., Schramke, C., Em, O., Lawler, J., Hobeck, J. and Morré, D. M. 1999. Mol. Cell. Bochem. 200: 7-13). DTDP cleavage was buffered (50 mM Tris-MES, pH 7). The assay was preincubated (1 h at room temperature) with 0.5 μmoles 2,2′-dithiodipyridine (DTDP) in 5 μl of DMSO to react with endogenous reductants present with the plasma membranes. After 10 min, a further […] DTDP were added in 35 μl DMSO to start the reaction. The final reaction volume was […]. The reaction was monitored from the increase in absorbance at 340 nm. Specific activities were calculated using a milimolar absorption coefficient of 6.21.
(§3) Amino acids indicated were replaced by alanines by site-directed mutagenesis according to Braman et al. (Braman, J., Papworth, C. and Greener, A. 1996. Methods Mol. Biol. 57:32-44). Numbered amino acids and nucleotide positions of splice variant products refer to numbers assigned to amino acids of the full length transcript

For assay [3], the system named is dNOX (ABP-20). The assay is described as above. The protocol: as §2, §3
Assay [4] concerns the target T3, dNOX (ABP-20). The experiment in a line: NADH oxidation of dNOX (ABP-20) site-directed mutants. The conditions noted are these: versus wild type. Here is the method: as §1, §3
Assay [5] has as its system dNOX (ABP-20). The assay is described as above. The protocol:
as §1, §3

T3 sequence (O04011 other isoform, or with tags, fused parts or gaps C44A/DUP151-151): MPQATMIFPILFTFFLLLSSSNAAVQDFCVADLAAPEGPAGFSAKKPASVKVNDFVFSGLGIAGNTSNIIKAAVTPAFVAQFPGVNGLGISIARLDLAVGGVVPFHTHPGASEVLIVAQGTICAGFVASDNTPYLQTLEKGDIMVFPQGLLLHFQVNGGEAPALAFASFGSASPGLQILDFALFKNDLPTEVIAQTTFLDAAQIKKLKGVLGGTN

In the case of `O=C(O)COc1ccc(Cl)cc1Cl` [2,4-dichlorophenoxyacetic acid], the “stimulation of NOX activity of soybean plasma membranes (dNOX)” value with dNOX of soybean is listed as “approximately two-fold”. At recombinant ABP-20 (1 μM auxin, IEF-purified fractions), the average specific activity is listed as around 0.6±0.2 μmoles/min/mg protein. The NADH oxidase activity worked out at 0.8 ± 0.2 µmol/min/mg on recombinant ABP-20 (addition 1 μM, average of 3 determinations ± SD, None = 0.1 ± 0.08) and 3.7 ± 0.1 µmol/min/mg in assay [1] (addition 1 μM, average of 3 determinations ± SD, None = 2.7 ± 0.4). In addition, the “optimum concentration for activation” value on recombinant ABP-20 (higher concentration less effective) is recorded as “about 1 μM”. Besides, in assay [1] (concentrations of Table 5), the “Effect on ENOX1 activity eluted from the IEF gel” value was “without effect”.

Regarding `Oc1ccc(C2=Cc3ccc(O)cc3OC2)cc1` [Phenoxodiol], the inhibition at 10 µM at recombinant human ENOX2 is above 90%.

B1: C44A: ABP-20 with C44 replaced by alanine (CKK motif) (protein, UniProt O04011 24-214, looked up, variant C44A)
Auxin-binding protein ABP20: AVQDFCVADLAAPEGPAGFSAKKPASVKVNDFVFSGLGIAGNTSNIIKAAVTPAFVAQFPGVNGLGISIARLDLAVGGVVPFHTHPGASEVLIVAQGTICAGFVASDNTPYLQTLEKGDIMVFPQGLLHFQVNGGEAPALAFASFGSASPGLQILDFALFKNDLPTEVIAQTTFLDAAQIKKLKGVLGGTN
B1: the “reduction of protein disulfide-dithiol interchange activity” value with dNOX (ABP-20) [2] was 81%. The “DTDP Interchange” value in the assay with dNOX (ABP-20) [3] came out at 0.02 ± 0.01 μmoles/min/mg protein. Besides, the “reduction of NADH oxidation activity” value with dNOX (ABP-20) [4] came out at 81%. Also, the “NADH Oxidation” value with dNOX (ABP-20) [5] is reported as 0.15 ± 0.05 μmoles/min/mg protein.

B2: None (Wild Type): recombinant auxin-activated ENOX protein ABP-20 (Prunus persica), SEQ ID NO: 8, unmodified (protein, listed as Prunus persica)
chain: MPQATMIFPILFTFFLLLSSSNAAVQDFCVADLAAPEGPAGFSCKKPASVKVNDFVFSGLGIAGNTSNIIKAAVTPAFVAQFPGVNGLGISIARLDLAVGGVVPFHTHPGASEVLIVAQGTICAGFVASDNTPYLQTLEKGDIMVFPQGLLLHFQVNGGEAPALAFASFGSASPGLQILDFALFKNDLPTEVIAQTTFLDAAQIKKLKGVLGGTN
modifications: DISULFID (29)..(44); BINDING (59)..(64); BINDING (106)..(108); BINDING (113)..(113); BINDING (150)..(152)
On to B2, for which the “DTDP Interchange” value in the assay on dNOX (ABP-20) [3] is 0.9 ± 0.05 μmoles/min/mg protein. For the same molecule, the “NADH Oxidation” value in the assay with dNOX (ABP-20) [5] was determined as 0.8 ± 0.1 μmoles/min/mg protein.

As usually defined, the inhibition is the percentage by which the read-out fell short of the control.
